# From patent publication US8778874B2, “Glycopeptide antibiotic monomer derivatives” (priority 2004, dated 2014)
# Tested on: vancomycin-resistant enterococcus (VRE VanA)
# Assay: In vitro assay of antimicrobial activity: MIC by the microdilution method using cation adjusted Mueller-Hinton broth
# Type: cell-based
# Protocol: In Vitro Assay of Antimicrobial Activity
# For several compounds of the invention, minimal inhibitory concentration (MIC) was determined by the microdilution method using cation adjusted Mueller-Hinton broth well known in the art.
# [1] = E. faecalis SR7914 (VRE: Van A)
minimal inhibitory concentration (MIC) [1],minimal inhibitory concentration (MIC) (E. faecium SR7917 (VRE: Van A)),SMILES
4,4,CNC(CC(C)C)C(=O)NC1C(=O)N[C@@H](CC(N)=O)C(=O)N[C@H]2C(=O)N[C@H]3C(=O)N[C@H](C(=O)N[C@@H](C(=O)O)c4cc(O)cc(O)c4-c4cc3ccc4O)C(O)c3ccc(c(Cl)c3)Oc3cc2cc(c3OC2OC(CO)[C@H](O)C(O)[C@H]2O[C@@H]2CC(C)(NCc3ccc(OCCCNC(=O)c4ccc(C)c(OCc5ccccc5)c4[N+](=O)[O-])cc3)[C@@H](O)C(C)O2)Oc2ccc(cc2Cl)[C@H]1O (stereo partly drawn) [Compound 16]
2,2,CNC(CC(C)C)C(=O)NC1C(=O)N[C@@H](CC(N)=O)C(=O)N[C@H]2C(=O)N[C@H]3C(=O)N[C@H](C(=O)N[C@@H](C(=O)O)c4cc(O)cc(O)c4-c4cc3ccc4O)C(O)c3ccc(c(Cl)c3)Oc3cc2cc(c3OC2OC(CO)[C@H](O)C(O)[C@H]2O[C@@H]2CC(C)(NCc3cccc(NC(=O)c4ccc(C)c(OCc5ccccc5)c4[N+](=O)[O-])c3)[C@@H](O)C(C)O2)Oc2ccc(cc2Cl)[C@H]1O (stereo partly drawn) [Compound 10]

SMILES,minimal inhibitory concentration (MIC) [1],minimal inhibitory concentration (MIC) (E. faecium SR7917 (VRE: Van A))
"CN[C@H](CC(C)C)C(=O)N[C@H]1C(=O)N[C@@H](CC(N)=O)C(=O)N[C@H]2C(=O)N[C@H]3C(=O)N[C@H](C(=O)N[C@H](C(=O)O)c4cc(O)cc(O)c4-c4cc3ccc4O)[C@H](O)c3ccc(c(Cl)c3)Oc3cc2cc(c3O[C@@H]2O[C@H](CO)[C@@H](O)[C@H](O)[C@H]2O[C@H]2C[C@](C)(N)[C@H](O)[C@H](C)O2)Oc2ccc(cc2Cl)[C@H]1O [VCM, vancomycin, reference compound]",>64,>64
